Among the data in BindingDB's records for doi:10.1016/j.bmcl.2006.01.057 (Glaxosmithkline, 2006) are IC50 values, retold here.

For the assay, the target named is Glycogen synthase kinase-3 beta (Homo sapiens, UniProt P49841). Description: Kinase Inhibition SPA Assay. Conditions: pH 7.2; 22 °C. Here is the method:
The biochemical activity of compounds was determined by incubation with specific enzyme and substrate in the presence 2.5 uM ATP/ [gamma-33P] ATP. After incubation, the reaction was stopped and the phosphorylated substrate was separated from nonincorporated radioactive ATP using Streptavidin-coated SPA beads (Amersham Pharmacia), counted using TopCount (Packard) to measure substrate-incorporated phosphate.

Sequence of Glycogen synthase kinase-3 beta (P49841 whole entry): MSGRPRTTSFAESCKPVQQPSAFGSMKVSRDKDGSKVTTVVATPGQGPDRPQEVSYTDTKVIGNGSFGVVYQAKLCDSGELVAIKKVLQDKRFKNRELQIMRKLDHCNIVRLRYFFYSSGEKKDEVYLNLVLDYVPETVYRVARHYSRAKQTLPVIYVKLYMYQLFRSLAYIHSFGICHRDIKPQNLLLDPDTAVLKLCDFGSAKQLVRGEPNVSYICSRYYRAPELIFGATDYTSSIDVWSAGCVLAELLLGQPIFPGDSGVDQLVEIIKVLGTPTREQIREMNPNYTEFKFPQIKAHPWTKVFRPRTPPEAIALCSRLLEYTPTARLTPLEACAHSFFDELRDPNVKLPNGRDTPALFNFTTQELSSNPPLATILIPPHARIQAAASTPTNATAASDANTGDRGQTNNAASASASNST

Broadly, the IC50 is the concentration at which inhibition is half-maximal. In the case of `COc1cccc(-n2ncc3c(N=NCc4ccncc4)ncnc32)c1` [4-[(1E)-{2-[1-(3-methoxyphenyl)-1H-pyrazolo[3,4-d]pyrimidin-4-yl]hydrazin-1-ylidene}methyl]pyridine], the IC50 worked out at 6.3 nM. That is a single-digit nanomolar value. Next, `COc1cccc(-c2n[nH]c3c(N=NCc4ccncc4)ncnc23)c1` [4-[(1E)-{2-[3-(3-methoxyphenyl)-1H-pyrazolo[4,3-d]pyrimidin-7-yl]hydrazin-1-ylidene}methyl]pyridine]: 5.01 nM; `COc1cccc(-c2cn(C)c3c(N=NCc4ccncc4)ncnc23)c1` [4-[(1E)-{2-[7-(3-methoxyphenyl)-5-methyl-5H-pyrrolo[3,2-d]pyrimidin-4-yl]hydrazin-1-ylidene}methyl]pyridine]: 501 nM. `COc1cccc(-c2c[nH]c3c(N=NCc4ccncc4)ncnc23)c1` [4-[(1E)-{2-[7-(3-methoxyphenyl)-5H-pyrrolo[3,2-d]pyrimidin-4-yl]hydrazin-1-ylidene}methyl]pyridine] registered an IC50 of 5.01 nM. `COc1cccc(-n2ccc3c(N=NCc4ccncc4)ncnc32)c1` [4-[(1E)-{2-[7-(3-methoxyphenyl)-7H-pyrrolo[2,3-d]pyrimidin-4-yl]hydrazin-1-ylidene}methyl]pyridine]: the IC50 is 31.6 nM.

In turn, `COc1cccc(-n2cnc3c(N=NCc4ccncc4)ncnc32)c1` [9-(3-methoxyphenyl)-6-[(2E)-2-(pyridin-4-ylmethylidene)hydrazin-1-yl]-9H-purine] came in with an IC50 of 631 nM. This IC50 lies about 20-fold higher than the previous one.
